{"source": "patent US8501812B2", "about": "“Therapeutic methods for type I diabetes” (University of Massachusetts, priority 2005, dated 2013)", "key": {"JNK2": {"biological_target": "T1, JNK2 (Homo sapiens, UniProt P45984)", "T1 construct": "His6 (N)", "T1 sequence (P45984 whole entry)": "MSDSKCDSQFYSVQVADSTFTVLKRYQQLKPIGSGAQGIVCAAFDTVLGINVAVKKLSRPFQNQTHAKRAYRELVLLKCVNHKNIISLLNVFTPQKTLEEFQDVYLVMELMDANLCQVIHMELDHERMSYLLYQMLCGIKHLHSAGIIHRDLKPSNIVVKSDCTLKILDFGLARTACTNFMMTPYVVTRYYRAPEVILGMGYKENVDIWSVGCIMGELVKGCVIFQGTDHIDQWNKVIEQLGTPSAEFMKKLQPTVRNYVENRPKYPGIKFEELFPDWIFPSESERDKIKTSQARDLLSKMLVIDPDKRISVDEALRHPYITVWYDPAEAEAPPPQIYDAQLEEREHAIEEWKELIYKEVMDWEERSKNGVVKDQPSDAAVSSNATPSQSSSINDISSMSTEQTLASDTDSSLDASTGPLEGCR", "experiment": "c-Jun phosphorylation assay with His6-JNK2 and GST-c-Jun(1-79), γ-32P ATP", "type": "biochemical", "details": "assay consistently shows, despite variability", "description": "For example, to 10 μL of 5-amino-anthra(9,1-cd)isothiazol-6-one in 20% DMSO/80% dilution buffer containing of 20 mM HEPES (pH 7.6), 0.1 mM EDTA, 2.5 mM magnesium chloride, 0.004% Triton×100, 2 μg/mL leupeptin, 20 mM β-glycerolphosphate, 0.1 mM sodium vanadate, and 2 mM DTT in water is added 30 μL of 50-200 ng His6-JNK2 in the same dilution buffer. The mixture is pre-incubated for 30 minutes at room temperature. Sixty μL of 10 μg GST-c-Jun(1-79) in assay buffer consisting of 20 mM HEPES (pH 7.6), 50 mM sodium chloride, 0.1 mM EDTA, 24 mM magnesium chloride, 1 mM DTT, 25 mM PNPP, 0.05% Triton×100, 11 μM ATP, and 0.5 μCi γ-32P ATP in water is added and the reaction is allowed to proceed for 1 hour at room temperature. The c-Jun phosphorylation is terminated by addition of 150 μL of 12.5% trichloroacetic acid. After 30 minutes, the precipitate is harvested onto a filter plate, diluted with 50 μL of the scintillation fluid and quantified by a counter. The IC50 values are calculated as the concentration of 5-amino-anthra(9,1-cd)isothiazol-6-one at which the c-Jun phosphorylation is reduced to 50% of the control value. Compounds that inhibit JNK2 preferably have an IC50 value ranging 0.01-10 μM in this assay. 5-Amino-anthra(9,1-cd)isothiazol-6-one has an IC50 according to this assay of 1 μM for JNK2 and 400 nM for JNK3."}, "[1]": {"experiment": "solubility in aqueous media", "type": "physicochemical"}}, "data": [{"smiles": "Nc1ccc2snc3c2c1C(=O)c1ccccc1-3", "note": "[5-amino-anthra(9,1-cd)isothiazol-6-one]", "values": [{"measurement": "selectivity of JNK2 inhibition", "setting": "JNK2", "result": "selectively inhibits JNK2"}, {"measurement": "solubility in aqueous media", "setting": "[1]", "result": "limited solubility"}]}]}
